Source: BindingDB's records for PubMed 37981443 (National Clinical Research Center for Geriatrics)

How the values were obtained:
[1] = target: 1-phosphatidylinositol 3-phosphate 5-kinase (Homo sapiens, UniProt Q9Y2I7); assay: Inhibition of N-terminal His-tagged human PIKfyve expressed in Sf9 insect cells incubated for 1 hr by enzyme assay
Procathepsin L = Procathepsin L (Homo sapiens, UniProt P07711); assay: Inhibition of Cathepsin L (unknown origin)
Sequence of Procathepsin L (P07711 whole entry): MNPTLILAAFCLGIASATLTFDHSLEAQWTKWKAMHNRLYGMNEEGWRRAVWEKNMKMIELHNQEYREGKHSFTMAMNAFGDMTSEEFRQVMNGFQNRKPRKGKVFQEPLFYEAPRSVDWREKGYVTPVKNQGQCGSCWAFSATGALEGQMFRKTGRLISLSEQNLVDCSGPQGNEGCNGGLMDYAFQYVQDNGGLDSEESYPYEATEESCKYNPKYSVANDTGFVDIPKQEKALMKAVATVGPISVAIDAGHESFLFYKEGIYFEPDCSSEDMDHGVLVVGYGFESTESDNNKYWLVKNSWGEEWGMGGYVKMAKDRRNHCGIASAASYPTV

Sequence of 1-phosphatidylinositol 3-phosphate 5-kinase (Q9Y2I7 whole entry): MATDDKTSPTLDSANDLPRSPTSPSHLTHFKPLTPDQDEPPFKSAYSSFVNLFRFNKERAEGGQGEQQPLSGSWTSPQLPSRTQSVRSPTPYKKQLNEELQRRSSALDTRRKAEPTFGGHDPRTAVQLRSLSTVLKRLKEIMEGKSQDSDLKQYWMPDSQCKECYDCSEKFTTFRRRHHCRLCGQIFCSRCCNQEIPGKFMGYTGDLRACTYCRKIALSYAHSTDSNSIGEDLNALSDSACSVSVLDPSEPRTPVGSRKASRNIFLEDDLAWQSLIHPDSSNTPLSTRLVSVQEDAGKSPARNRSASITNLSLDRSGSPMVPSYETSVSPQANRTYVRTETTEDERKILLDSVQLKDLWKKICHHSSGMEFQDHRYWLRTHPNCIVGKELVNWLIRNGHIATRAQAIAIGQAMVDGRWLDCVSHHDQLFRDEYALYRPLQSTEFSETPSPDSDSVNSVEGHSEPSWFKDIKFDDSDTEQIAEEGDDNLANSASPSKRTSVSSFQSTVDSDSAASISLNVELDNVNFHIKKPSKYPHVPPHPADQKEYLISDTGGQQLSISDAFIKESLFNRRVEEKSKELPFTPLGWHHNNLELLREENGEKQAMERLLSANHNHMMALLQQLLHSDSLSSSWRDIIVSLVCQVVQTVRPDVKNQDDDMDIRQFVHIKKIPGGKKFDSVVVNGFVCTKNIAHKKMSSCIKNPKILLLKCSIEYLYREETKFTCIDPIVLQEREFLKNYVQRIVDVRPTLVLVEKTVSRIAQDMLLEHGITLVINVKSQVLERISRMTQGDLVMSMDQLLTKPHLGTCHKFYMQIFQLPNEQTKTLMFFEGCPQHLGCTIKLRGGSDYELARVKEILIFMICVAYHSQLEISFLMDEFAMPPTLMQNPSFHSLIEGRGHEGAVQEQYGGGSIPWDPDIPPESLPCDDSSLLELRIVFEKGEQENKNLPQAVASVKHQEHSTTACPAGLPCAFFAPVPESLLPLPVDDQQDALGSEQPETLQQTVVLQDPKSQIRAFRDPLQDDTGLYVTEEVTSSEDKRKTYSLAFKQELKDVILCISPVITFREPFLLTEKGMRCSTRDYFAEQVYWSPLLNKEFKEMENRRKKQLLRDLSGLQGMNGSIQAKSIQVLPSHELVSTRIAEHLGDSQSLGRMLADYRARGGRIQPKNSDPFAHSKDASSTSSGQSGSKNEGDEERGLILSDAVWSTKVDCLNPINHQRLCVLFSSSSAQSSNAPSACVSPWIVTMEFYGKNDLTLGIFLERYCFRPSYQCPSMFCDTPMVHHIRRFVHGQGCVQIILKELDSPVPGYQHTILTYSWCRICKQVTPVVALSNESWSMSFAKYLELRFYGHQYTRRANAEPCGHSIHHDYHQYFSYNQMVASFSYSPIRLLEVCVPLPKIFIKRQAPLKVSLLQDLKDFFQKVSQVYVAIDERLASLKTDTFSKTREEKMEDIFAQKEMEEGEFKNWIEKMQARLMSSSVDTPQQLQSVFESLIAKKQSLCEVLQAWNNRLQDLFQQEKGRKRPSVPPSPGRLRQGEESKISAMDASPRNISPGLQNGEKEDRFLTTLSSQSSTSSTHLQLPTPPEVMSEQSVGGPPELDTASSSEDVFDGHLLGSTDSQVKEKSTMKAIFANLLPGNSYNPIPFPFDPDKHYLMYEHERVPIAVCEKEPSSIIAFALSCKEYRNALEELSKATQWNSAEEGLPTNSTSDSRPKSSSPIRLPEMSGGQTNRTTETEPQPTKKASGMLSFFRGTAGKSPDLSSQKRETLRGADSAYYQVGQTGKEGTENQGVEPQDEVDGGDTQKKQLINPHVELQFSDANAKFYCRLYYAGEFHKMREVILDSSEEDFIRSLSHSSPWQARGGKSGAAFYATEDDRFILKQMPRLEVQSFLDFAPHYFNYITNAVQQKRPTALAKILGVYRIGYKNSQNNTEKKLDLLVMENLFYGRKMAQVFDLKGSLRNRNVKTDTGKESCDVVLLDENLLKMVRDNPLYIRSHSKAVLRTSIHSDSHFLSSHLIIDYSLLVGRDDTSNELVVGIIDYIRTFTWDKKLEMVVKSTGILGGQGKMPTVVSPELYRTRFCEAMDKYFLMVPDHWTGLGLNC

SMILES	IC50 [1] [nM]	IC50 (Procathepsin L) [nM]
COc1ccc2[nH]c(C)c(/C=C/C(=O)c3ccncc3)c2c1	5.1	–
CCCC[C@@H](C=O)NC(=O)[C@H](CC(C)C)NC(=O)OCc1ccccc1 [[(S)-1-((S)-1-Formyl-pentylcarbamoyl)-3-methyl-butyl]-carbamic acid benzyl ester]	–	44
